From patent US11180474B2 (BRISTOL-MYERS SQUIBB COMPANY, priority 2016, dated 2021) come the findings set out here.

The target in one experiment is T1, human TLR9 (Homo sapiens, UniProt Q9NR96).
T1 construct: host or cells: HEK-Blue cells
T1 sequence (Q9NR96 26-1032): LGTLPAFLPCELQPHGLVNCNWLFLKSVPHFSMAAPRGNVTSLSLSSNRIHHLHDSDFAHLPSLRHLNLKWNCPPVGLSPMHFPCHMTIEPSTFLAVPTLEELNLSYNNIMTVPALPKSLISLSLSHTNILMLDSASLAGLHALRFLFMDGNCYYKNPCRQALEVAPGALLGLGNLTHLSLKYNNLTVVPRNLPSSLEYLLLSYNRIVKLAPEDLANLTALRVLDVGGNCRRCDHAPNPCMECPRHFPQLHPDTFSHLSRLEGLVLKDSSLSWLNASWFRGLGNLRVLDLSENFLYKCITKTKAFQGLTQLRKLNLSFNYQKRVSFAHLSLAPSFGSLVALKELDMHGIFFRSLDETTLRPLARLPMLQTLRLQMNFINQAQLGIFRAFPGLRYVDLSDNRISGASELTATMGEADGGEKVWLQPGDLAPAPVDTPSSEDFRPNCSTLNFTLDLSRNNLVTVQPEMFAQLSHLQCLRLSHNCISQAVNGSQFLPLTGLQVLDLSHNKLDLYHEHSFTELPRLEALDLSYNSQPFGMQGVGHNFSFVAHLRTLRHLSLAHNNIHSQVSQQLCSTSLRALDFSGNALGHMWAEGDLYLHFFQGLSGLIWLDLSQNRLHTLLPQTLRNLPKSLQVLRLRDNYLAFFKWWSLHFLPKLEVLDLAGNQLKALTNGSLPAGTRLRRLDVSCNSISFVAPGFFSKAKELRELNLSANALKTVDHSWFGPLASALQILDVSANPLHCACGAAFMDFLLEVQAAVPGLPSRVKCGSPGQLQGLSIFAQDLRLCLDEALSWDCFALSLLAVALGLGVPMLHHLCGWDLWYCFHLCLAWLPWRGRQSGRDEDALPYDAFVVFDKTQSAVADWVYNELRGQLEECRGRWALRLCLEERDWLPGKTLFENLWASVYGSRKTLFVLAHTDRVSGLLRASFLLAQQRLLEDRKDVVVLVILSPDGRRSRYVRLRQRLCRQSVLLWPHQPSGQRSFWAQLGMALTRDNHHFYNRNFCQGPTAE
The experiment can be described thus: TLR9 inhibition reporter assay (HEK-Blue cells, SEAP reporter, ODN2006 stimulation). As to conditions: HEK-Blue cells overexpressing human TLR9, ODN2006 5 nM. It counts as cell-based. Put shortly:
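Compound treatment: 30 min, RT, 0.05 nM–50 μM final. Agonist: TLR7 gardiquimod 7.5 μM; TLR8 R848 15.9 μM; TLR9 ODN2006 5 nM. Incubation 22 h, 37 °C, 5% CO2. Readout SEAP, HEK-Blue Detection.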
(Reporter assays use an easily measured gene product as a stand-in for the process of interest.)

The target in a further experiment is T2, human TLR8 (Homo sapiens, UniProt Q9NR97).
T2 construct: host or cells: HEK-Blue cells
T2 sequence (Q9NR97 27-1041): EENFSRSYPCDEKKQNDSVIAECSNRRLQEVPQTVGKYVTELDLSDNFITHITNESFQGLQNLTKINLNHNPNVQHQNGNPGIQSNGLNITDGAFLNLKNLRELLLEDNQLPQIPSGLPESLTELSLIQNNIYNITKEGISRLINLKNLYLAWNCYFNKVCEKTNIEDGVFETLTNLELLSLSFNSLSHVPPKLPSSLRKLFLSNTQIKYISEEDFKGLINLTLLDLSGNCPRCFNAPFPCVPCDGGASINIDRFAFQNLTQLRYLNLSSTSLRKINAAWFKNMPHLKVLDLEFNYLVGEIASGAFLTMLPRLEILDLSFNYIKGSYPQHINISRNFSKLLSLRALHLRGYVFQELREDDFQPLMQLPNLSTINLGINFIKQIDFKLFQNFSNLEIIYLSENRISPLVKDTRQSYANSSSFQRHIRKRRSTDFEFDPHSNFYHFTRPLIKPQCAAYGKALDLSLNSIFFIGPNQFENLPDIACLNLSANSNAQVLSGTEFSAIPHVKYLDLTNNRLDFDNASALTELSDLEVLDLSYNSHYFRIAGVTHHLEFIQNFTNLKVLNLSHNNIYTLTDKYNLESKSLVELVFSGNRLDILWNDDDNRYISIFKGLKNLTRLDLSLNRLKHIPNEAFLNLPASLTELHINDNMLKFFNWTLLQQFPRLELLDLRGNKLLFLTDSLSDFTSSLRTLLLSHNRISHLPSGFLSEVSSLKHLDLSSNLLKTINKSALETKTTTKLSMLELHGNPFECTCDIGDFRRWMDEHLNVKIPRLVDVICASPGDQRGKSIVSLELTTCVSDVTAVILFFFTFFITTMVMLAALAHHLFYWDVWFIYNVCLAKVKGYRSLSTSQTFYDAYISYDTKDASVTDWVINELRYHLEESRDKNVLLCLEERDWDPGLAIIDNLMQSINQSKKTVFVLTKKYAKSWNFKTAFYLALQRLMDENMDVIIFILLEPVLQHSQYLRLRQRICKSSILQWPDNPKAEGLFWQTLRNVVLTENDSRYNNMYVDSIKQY
Kind of experiment: TLR8 inhibition reporter assay (HEK-Blue cells, SEAP reporter, R848 stimulation). Type of experiment: cell-based. As to conditions: HEK-Blue cells overexpressing human TLR8, R848 15.9 μM. Put shortly:
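22 h, 37° C, 5% CO2 incubation; compounds 0.05 nM-50 μM final; TLR7 cells 15000/well, TLR8 20,000/well. Readout: SEAP via HEK-Blue Detection medium. % inhibition = signal reduction versus agonist + DMSO wells, referenced to known inhibitor.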

The structures appear in SMILES notation.

The IC50 is the point on the concentration scale where inhibition reaches its midpoint. Read a high IC50 as a need for much substance. `COc1ccc(-c2[nH]c3ccc(C4CCN(C(=O)CO)CC4)cc3c2C(C)C)cc1OC` [Example 313, 1-(4-(2-(3,4-dimethoxyphenyl)-3-isopropyl-1H-indol-5-yl)piperidin-1-yl)-2-hydroxyethanone]: the figures for the IC50 on human TLR9 and on human TLR8 were 48300 nM and 496 nM, respectively.
The like results for `COc1ccc(-c2[nH]c3ccc(C4CCN(C(=O)CN5CCC[C@H](C(=O)N(C)C(C)C)C5)CC4)cc3c2C(C)C)cc1OC` [Example 288, (S)-1-(2-(4-(2-(3,4-dimethoxyphenyl)-3-isopropyl-1H-indol-5-yl)piperidin-1-yl)-2-oxoethyl)-N-isopropyl-N-methylpiperidine-3-carboxamide] were, in that order, 633 nM and 32 nM.
Consider `COc1ccc(-c2[nH]c3ccc(C4CCN(C(=O)CN5CCC[C@@H](C(=O)N6CCN(CCN7CCCC7)CC6)C5)CC4)cc3c2C(C)C)cc1OC` [Example 307, (R)-1-(4-(2-(3,4-dimethoxyphenyl)-3-isopropyl-1H-indol-5-yl)piperidin-1-yl)-2-(3-(4-(2-(pyrrolidin-1-yl)ethyl)piperazine-1-carbonyl)piperidin-1-yl)ethan-1-one], for which the half-inhibitory concentration (IC50) against human TLR9 was found to be 579 nM; against human TLR8, 38 nM.
On to `COc1ccc(-c2[nH]c3ccc(C4CCN(Cc5cnc(C)[nH]5)CC4)cc3c2C(C)C)cc1OC` [Example 266, 2-(3,4-dimethoxyphenyl)-3-isopropyl-5-(1-((2-methyl-1H-imidazol-5-yl)methyl)piperidin-4-yl)-1H-indole], for which the results for the IC50 at human TLR9 and against human TLR8 were 1260 nM and 20 nM, respectively.
In the case of `CNCC(=O)N1CCC(c2ccc3[nH]c(-c4ccc(OC)c(OC)c4)c(C(C)C)c3c2)CC1` [Example 256, 1-(4-(2-(3,4-dimethoxyphenyl)-3-isopropyl-1H-indol-5-yl)piperidin-1-yl)-2-(methylamino)ethan-1-one], the figures for the half-maximal inhibitory concentration (IC50) at human TLR9 and against human TLR8 were 2320 nM and 35 nM, respectively.
For `COc1ccc(-c2[nH]c3ccc(C4CCN(C(=O)CN5CCC[C@H](C(=O)N6CCCC(O)C6)C5)CC4)cc3c2C(C)C)cc1OC` (stereo partly drawn) [Example 292, 1-(4-(2-(3,4-dimethoxyphenyl)-3-isopropyl-1H-indol-5-yl)piperidin-1-yl)-2-((3S)-3-(3-hydroxypiperidine-1-carbonyl)piperidin-1-yl)ethan-1-one], the 50% inhibitory concentration (IC50) was 1810 nM against human TLR9 and 22 nM against human TLR8.
For `CCN(CC)C(=O)C1CCCN(CC(=O)N2CCC(c3ccc4[nH]c(-c5ccc(OC)c(OC)c5)c(C(C)C)c4c3)CC2)C1` (centres unmarked) [Example 224, 1-(2-(4-(2-(3,4-dimethoxyphenyl)-3-isopropyl-1H-indol-5-yl)piperidin-1-yl)-2-oxoethyl)-N,N-diethylpiperidine-3-carboxamide], the results for the IC50 against human TLR9 and on human TLR8 were 403 nM and 27 nM, respectively.
On to `COc1ccc(-c2[nH]c3ccc(C4CCN(C(=O)CN[C@@H](CO)CC(C)C)CC4)cc3c2C(C)C)cc1OC` [Example 234, (R)-1-(4-(2-(3,4-dimethoxyphenyl)-3-isopropyl-1H-indol-5-yl)piperidin-1-yl)-2-((1-hydroxy-4-methylpentan-2-yl)amino) ethan-1-one], for which the IC50 came to 1880 nM on human TLR9 and 63 nM against human TLR8.
As to `COc1ccc(-c2[nH]c3ccc(C4CCN(C(=O)C[C@H](C)N)CC4)cc3c2C(C)C)cc1OC` [Example 253, (S)-3-amino-1-(4-(2-(3,4-dimethoxyphenyl)-3-isopropyl-1H-indol-5-yl)piperidin-1-yl)butan-1-one], the half-maximal inhibitory concentration (IC50) against human TLR9 stood at 445 nM; against human TLR8, 19 nM.
As to `COc1ccc(-c2[nH]c3ccc(C4CCN(C(=O)CN5CCN(C(C)C)CC5)CC4)cc3c2C(C)C)cc1OC` [Example 240, 1-(4-(2-(3,4-dimethoxyphenyl)-3-isopropyl-1H-indol-5-yl)piperidin-1-yl)-2-(4-isopropylpiperazin-1-yl)ethan-1-one], the results for the concentration for half-maximal inhibition (IC50) against human TLR9 and on human TLR8 were 1390 nM and 34 nM, respectively.
On the same counts, the results for `COc1ccc(-c2[nH]c3ccc(C4CCN(C(=O)CN5CCC[C@H](C(=O)NCCNC(C)=O)C5)CC4)cc3c2C(C)C)cc1OC` [Example 295, (S)—N-(2-acetamidoethyl)-1-(2-(4-(2-(3,4-dimethoxyphenyl)-3-isopropyl-1H-indol-5-yl)piperidin-1-yl)-2-oxoethyl) piperidine-3-carboxamide] are 5310 nM and 22 nM.
As for `COc1ccc(-c2[nH]c3ccc(C4CCN(CC(=O)NC5CCN(C(C)C)CC5)CC4)cc3c2C(C)C)cc1OC` [Example 273, 2-(4-(2-(3,4-dimethoxyphenyl)-3-isopropyl-1H-indol-5-yl)piperidin-1-yl)-N-(1-isopropylpiperidin-4-yl)acetamide], the IC50 against human TLR9 is 565 nM; against human TLR8, 29 nM.
On to `COc1ccc(-c2[nH]c3ccc(C4CCN(C(=O)CN5CCC[C@H](C(=O)NC(C)C)C5)CC4)cc3c2C(C)C)cc1OC` [Example 285, (S)-1-(2-(4-(2-(3,4-dimethoxyphenyl)-3-isopropyl-1H-indol-5-yl)piperidin-1-yl)-2-oxoethyl)-N-isopropylpiperidine-3-carboxamide], for which the IC50 at human TLR9 was found to be 4950 nM; against human TLR8 it was 37 nM.
On the same counts, the results for `COc1ccc(-c2[nH]c3ccc(C4CCN(C(=O)CN5CCC[C@@H](C(=O)N6CCC(CCO)CC6)C5)CC4)cc3c2C(C)C)cc1OC` [Example 306, (R)-1-(4-(2-(3,4-dimethoxyphenyl)-3-isopropyl-1H-indol-5-yl)piperidin-1-yl)-2-(3-(4-(2-hydroxyethyl)piperidine-1-carbonyl)piperidin-1-yl)ethan-1-one] are 2680 nM and 73 nM.
For `COc1ccc(-c2[nH]c3ccc(C4CCN(C(=O)CN[C@H]5CC[C@H](N)CC5)CC4)cc3c2C(C)C)cc1OC` [Example 232, 2-(((1r,4r)-4-aminocyclohexyl)amino)-1-(4-(2-(3,4-dimethoxyphenyl)-3-isopropyl-1H-indol-5-yl)piperidin-1-yl)ethan-1-one], the IC50 is 307 nM against human TLR9 and 169 nM on human TLR8.
The like results for `COc1ccc(-c2[nH]c3ccc(C4CCN(C(=O)CNC5CCCC5O)CC4)cc3c2C(C)C)cc1OC` (centres unmarked) [Example 236, 1-(4-(2-(3,4-dimethoxyphenyl)-3-isopropyl-1H-indol-5-yl)piperidin-1-yl)-2-((2-hydroxycyclopentyl)amino)ethan-1-one] were, in that order, 1380 nM and 38 nM.
